Data on eight molecules can be found in patent publication EP2766361B1, “8-CARBAMOYL-2-(2,3-DISUBSTITUTED PYRID-6-YL)-1,2,3,4-TETRAHYDROISOQUINOLINE DERIVATIVES AS APOPTOSIS-INDUCING AGENTS FOR THE TREATMENT OF CANCER AND IMMUNE AND AUTOIMMUNE DISEASES” (priority 2011, dated 2013).

For orientation: pEC50 means −log10 of the EC50, conventionally taken in molar units. Usually bioavailability stands for dose-corrected exposure relative to a reference, in per cent.

Data set [1] relates to mouse FL5.12 cells transfected with Bcl-xL. Kind of data set: FL5.12 cellular assay (cell viability, CellTiter-Glo). It counts as cell-based. Conditions: IL-3-depleted, 3% FBS assay media, 24 hours, read-out: FL5.12 Bcl-xL, -IL3, EC50. On the procedure: Cell viability was assayed using the CellTiter-Glo assay (Promega Corp., Madison, WI) according to the manufacturer instructions. Individual determinations were the result of duplicate values. […] Table 2. In Vitro Data
(ATP-based viability assays read luminescence as a measure of living cells.)

The nature of data set [2]: Single dose pharmacokinetics, oral bioavailability. It is filed as in vivo, Sprague-Dawley rats. Particulars: rat, in vivo, po.
Description: The single dose pharmacokinetics of select compounds were evaluated in Sprague-Dawley rats (Charles River) after a 5 mg/kg oral dose (n = 3) (10% DMSO in PEG-400) administered by gavage or by 5 mg/kg IV bolus dose (n = 3) (10% DMSO in PEG-400). Compound and the internal standard were separated from each other and coextracted contaminants on a 50 mm × 3 mm Keystone Betasil CN 5 µm column with an acetonitrile/0.1% trifluoroacetic acid mobile phase (50:50, by volume) at a flow rate of 0.7 mL/min. Analysis was performed on a Sciex API3000 biomolecular mass analyzer with a heated nebulizer interface. Compound and internal standard peak areas were determined using Sciex MacQuan software. The plasma drug concentration of each sample was calculated by least-squares linear regression analysis (nonweighted) of the peak area ratio (parent/internal standard) of the spiked plasma standards versus concentration. The plasma concentration data were submitted to multiexponential curve fitting using WinNonlin.3. The area under the plasma concentration-time curve was calculated using the linear trapezoidal rule for the plasma concentration-time profiles.
One way to calculate bioavailability of a drug or agent is by dividing the plasma concentration following an oral dose by the concentration following an intravenous dose.
Data set [3] deals with Molt-4 human acute lymphoblastic leukemia cells. Kind of data set: Molt-4 cellular assay (cell viability, MTS). It counts as cell-based. Conditions: 10% human serum, 48 hours. The method, then:
Molt-4 (ATCC, Manassas, VA) human acute lymphoblastic leukemia cells were plated 50,000 cells per well in 96-well tissue culture plates in a total volume of 100 µL tissue culture medium supplemented with 10% human serum (Invitrogen, Carlsbad, CA) and treated with a 3-fold serial dilution of the compounds of interest from 5 µM to […]. Each concentration was tested in duplicate at least 3 separate times. The number of viable cells following 48 hours of compound treatment was determined using the CellTiter 96® Aqueous non-radioactive cell proliferation MTS assay according to manufacturer's recommendations (Promega Corp., Madison, WI).

pEC50: −log10 of the molar value.

As for `O=C(Nc1nc2ccccc2s1)c1cccc2c1CN(c1ccc(-c3cnn(CC45CC6CC(CC(C6)O4)C5)c3)c(C(=O)O)n1)CC2` [Example 13, 6-[8-(1,3-benzothiazol-2-ylcarbamoyl)-3,4-dihydroisoquinolin-2(1H)-yl]-3-[1-(2-oxatricyclo[3.3.1.1^3,7]dec-1-ylmethyl)-1H-pyrazol-4-yl]pyridine-2-carboxylic acid], the pEC50 in data set [1] is 7.15. In data set [2] (5 mg/kg), this molecule had a bioavailability of 10%.
For `COC12CC3CC(CC(Cn4ncc(-c5ccc(N6CCc7cccc(C(=O)Nc8nc9ccccc9s8)c7C6)nc5C(=O)O)c4C)(C3)C1)C2` [Example 16, 6-[8-(1,3-benzothiazol-2-ylcarbamoyl)-3,4-dihydroisoquinolin-2(1H)-yl]-3-(1-{[3-methoxytricyclo[3.3.1.1^3,7]dec-1-yl]methyl}-5-methyl-1H-pyrazol-4-yl)pyridine-2-carboxylic acid] the same measures were over 9.00 and 20%.
Regarding `Cc1c(-c2ccc(N3CCc4cccc(C(=O)Nc5nc6cccnc6s5)c4C3)nc2C(=O)O)cnn1CC12CC3CC(CC(C3)C1)C2` [Example 24, 3-[5-methyl-1-(tricyclo[3.3.1.1^3,7]dec-1-ylmethyl)-1H-pyrazol-4-yl]-6-[8-([1,3]thiazolo[5,4-b]pyridin-2-ylcarbamoyl)-3,4-dihydroisoquinolin-2(1H)-yl]pyridine-2-carboxylic acid], in data set [1], the pEC50 is over 9.00. For the same molecule, the bioavailability in data set [2] (5 mg/kg) is 29%.
As to `O=C(Nc1nc2ccccc2s1)c1cccc2c1CN(c1ccc(-c3cnn(CC45CC6CC(CC(C6)C4)C5)c3Cl)c(C(=O)O)n1)CC2` [Example 42, 6-[8-(1,3-benzothiazol-2-ylcarbamoyl)-3,4-dihydroisoquinolin-2(1H)-yl]-3-{5-chloro-1-[tricyclo[3.3.1.1^3,7]dec-1-ylmethyl]-1H-pyrazol-4-yl}pyridine-2-carboxylic acid], in data set [1], the pEC50 was 9.30. The molecule also registered a bioavailability in data set [2] (1 mg/kg) of 15%.
Turning to `Cc1c(-c2ccc(N3CCc4cccc(C(=O)Nc5nc6ccccc6s5)c4C3C)nc2C(=O)O)cnn1CC12CC3CC(CC(C3)C1)C2` (stereo not shown) [Example 43, 6-[8-(1,3-benzothiazol-2-ylcarbamoyl)-1-methyl-3,4-dihydroisoquinolin-2(1H)-yl]-3-[5-methyl-1-(tricyclo[3.3.1.1^3,7]dec-1-ylmethyl)-1H-pyrazol-4-yl]pyridine-2-carboxylic acid], in data set [1], the pEC50 is 8.05. This molecule yielded a bioavailability in data set [2] (1 mg/kg) of 20%.
In the same order, the values of `COCCC1(Cn2ncc(-c3ccc(N4CCc5cccc(C(=O)Nc6nc7ccccc7s6)c5C4)nc3C(=O)O)c2C)CCCCCCC1` [Example 46, 6-[8-(1,3-benzothiazol-2-ylcarbamoyl)-3,4-dihydroisoquinolin-2(1H)-yl]-3-(1-{[1-(2-methoxyethyl)cyclooctyl]methyl}-5-methyl-1H-pyrazol-4-yl)pyridine-2-carboxylic acid] are 9.00 and 58%.
Take `Cc1c(-c2ccc(N3CCc4cccc(C(=O)Nc5cn6ccccc6n5)c4C3)nc2C(=O)O)cnn1CC12CC3CC(CC(C3)C1)C2` [Example 49, 6-[8-(imidazo[1,2-a]pyridin-2-ylcarbamoyl)-3,4-dihydroisoquinolin-2(1H)-yl]-3-[5-methyl-1-(tricyclo[3.3.1.1^3,7]dec-1-ylmethyl)-1H-pyrazol-4-yl]pyridine-2-carboxylic acid]: in data set [1], the pEC50 was 8.30. The same molecule had a bioavailability in data set [2] (1 mg/kg) of 15%.
`Cc1c(-c2ccc(N3CCc4cccc(C(=O)Nc5nc6ccccc6s5)c4C3)nc2C(=O)O)cc(C#N)n1CC12CC3CC(CC(C)(C3)O1)C2` [Example 72, 6-[8-(1,3-benzothiazol-2-ylcarbamoyl)-3,4-dihydroisoquinolin-2(1H)-yl]-3-{5-cyano-2-methyl-1-[(3-methyl-2-oxatricyclo[3.3.1.1^3,7]dec-1-yl)methyl]-1H-pyrrol-3-yl}pyridine-2-carboxylic acid]: the pEC50 is 9.70 in data set [1] and 7.46 in data set [3].
